In patent US9493506B2 (Enanta Pharmaceuticals, Inc., priority 2010, dated 2016):

Experiments:
Type in all cases: cell-based, hepatitis C virus (genotype 1a-H77)
[1] = system: HCV replicon with a R155K mutation in a 1a-H77 background; assay: transient replicon assay, R155K mutation in 1a-H77 background; settings: Hepatitis C virus, read-out: EC50 in a transient replicon assay with a R155K mutation in a 1a-H77 background
Procedure: (§1) Replicon cell lines can be maintained in Dulbecco's modified Eagles medium (DMEM) containing 100 IU/ml penicillin, […] streptomycin (Invitrogen), […] G418 (Invitrogen) and 10% (v/v) fetal bovine serum (FBS). Replicon-containing cells can be seeded into 96 well plates at a density of 5000 cells per well in 100 μl DMEM containing 5% FBS. The next day, the compound can be initially diluted in dimethyl sulfoxide (DMSO) to generate a 200× stock of the inhibitor in a series of 8 half-log dilutions. The dilution series can then be diluted 100-fold in the medium containing 5% FBS. One hundred microliters of medium with the inhibitor can be added to each well of the overnight cell culture plate already containing 100 μl of DMEM with 5% FBS. In assays where the protein binding effect on inhibitor potency is assessed, the medium from the overnight cell culture plates can be replaced with 200 μl DMEM containing 40% human plasma (Innovative Research) plus 5% FBS as well as compound. The cells can be grown for 4 days in tissue culture incubators. The inhibitory effects of compounds against the replicons can be determined by measuring either the level of luciferase or HCV RNA. The luciferase assay can be conducted using a Luciferase Assay System kit (Promega) following the manufacturer's instructions. Briefly, the cell culture medium is removed and wells are washed with 200 μl of phosphate-buffered saline. To each well Passive Lysis buffer (Promega, Wis.) is added and the plates are incubated for 30 min with rocking to lyse the cells. Luciferin solution (50 μl, Promega) is added, and luciferase activity is measured with a Victor II luminometer (Perkin-Elmer). To determine HCV RNA levels, RNA extractions can be performed using the CellsDirect kit (Invitrogen), and the HCV RNA copy number can be measured using the SuperScript III Platinum One-Step qRT-PCR system (Invitrogen) and primers specific to the HCV 5′ nontranslated region. Cytotoxicity can be determined by the 3-[4,5-dimethylhiazol-2-yl]-2,5-diphenyltetrazolium bromide (MTT) colorimetric assay as follows. Replicon cells is plated in 96-well plates (4000 cells per well), the next day compound dilutions are added as in the activity assay, and the cells are grown in the presence of the inhibitors for 4 days. The MTT solution is diluted in DMEM containing 5% FBS and 60 μl of the solution is added to the cells. After 4 hrs, the cells are solubilized by the addition of 30 […]μl SDS (20% in 0.02 N HCl). The plates are incubated overnight and the optical density can be measured at 570 nm. To determine compounds' EC50 and TD50, luciferase, RNA inhibition and MTT data can be analyzed using the GraphPad Prism 4 software (equation: sigmoidal dose-response—variable slope).
(§2) The 1a-H77 replicon for transient assays further differs from the replicon in the stable cell line in that it contains NS2 through NS5B in the second cistron. The 1b-N strain replicon contains NS3 through NS5B in the second cistron, with adaptive mutations E1202G in NS3 and S2204I in NS5A. Mutagenesis can be performed using the Stratagene QuikChange XL II site-directed mutagenesis kit. Mutants' sequences can be confirmed, plasmids can be linearized with Xba I restriction enzyme and used as template for in vitro transcription reactions to make mutant replicon RNA for transient transfections. In vitro transcription can be performed with the T7 Megascript kit (Ambion).
(§3) Transient replicon transfections can be performed essentially as described by Mo et al. (Antimicrob Agents Chemother (2005) 49(10):4305-4314) with slight modifications. Fifteen micrograms of template RNA can be used to electroporate 3×10^6 cells in a 200 μl volume in a 0.2 cm cuvette. The cells used for transient transfections can be Huh7 cells obtained by curing replicon-containing cells with IFN (Mo et al., supra). Electroporation can be done with a Gene Pulser II (Bio-Rad, CA) at 480V and 25 μF, using two manual pulses. […]

[2] = system: HCV replicon with a D168E mutation in a 1a-H77 background; assay: transient replicon assay, D168E mutation in 1a-H77 background; settings: Hepatitis C virus, read-out: EC50 in a transient replicon assay with a D168E mutation in a 1a-H77 background
Procedure: as §1, §2, §3

[3] = system: HCV replicon with a D168V mutation in a 1a-H77 background; assay: transient replicon assay, D168V mutation in 1a-H77 background; settings: Hepatitis C virus, read-out: EC50 in a transient replicon assay with a D168V mutation in a 1a-H77 background
Procedure: as §1, §2, §3

Structure (SMILES) | EC50 [1] [nM] | EC50 [2] [nM] | EC50 [3] [nM]
CC(C)(C)OC(=O)N[C@H]1CCCCC/C=C\[C@@H]2C[C@@]2(C(=O)NS(=O)(=O)C2CC2)NC(=O)[C@@H]2C[C@@H](Oc3nc4ccccc4nc3C(C)(F)F)CN2C1=O [Example 1, tert-butyl (2R,6S,13aS,14aR,16aS,Z)-14a-(cyclopropylsulfonylcarbamoyl)-2-(3-(1,1-difluoroethyl)quinoxalin-2-yloxy)-5,16-dioxo-1,2,3,5,6,7,8,9,10,11,13a,14,14a,15,16,16a-hexadecahydrocyclopropa[e]pyrrolo[1,2-a][1,4]diazacyclopentadecin-6-ylcarbamate] | < 1 | 3 to 20 | 50 to 250
CC(F)(F)c1nc2ccccc2nc1O[C@@H]1C[C@H]2C(=O)N[C@]3(C(=O)NS(=O)(=O)C4CC4)C[C@H]3/C=C\CCCCC[C@H](NC(=O)c3ccon3)C(=O)N2C1 [Example 3, N-((2R,6S,13aS,14aR,16aS,Z)-14a-(cyclopropylsulfonylcarbamoyl)-2-(3-(1,1-difluoroethyl)quinoxalin-2-yloxy)-5,16-dioxo-1,2,3,5,6,7,8,9,10,11,13a,14,14a,15,16,16a-hexadecahydrocyclopropa[e]pyrrolo[1,2-a][1,4]diazacyclopentadecin-6-yl)isoxazole-3-carboxamide] | < 1 | < 3 | 50 to 250
CC(C)(C)C(=O)N[C@H]1CCCCC/C=C\[C@@H]2C[C@@]2(C(=O)NS(=O)(=O)C2CC2)NC(=O)[C@@H]2C[C@@H](Oc3nc4ccccc4nc3C(C)(F)F)CN2C1=O [Example 4, (2R,6S,13aS,14aR,16aS,Z)—N-(cyclopropylsulfonyl)-2-(3-(1,1-difluoroethyl)quinoxalin-2-yloxy)-5,16-dioxo-6-pivalamido-1,2,3,5,6,7,8,9,10,11,13a,14,14a,15,16,16a-hexadecahydrocyclopropa[e]pyrrolo[1,2-a][1,4]diazacyclopentadecine-14a-carboxamide] | 1 to 10 | 3 to 20 | 50 to 250
CC(F)(F)c1nc2ccccc2nc1O[C@@H]1C[C@H]2C(=O)N[C@]3(C(=O)NS(=O)(=O)C4(C)CC4)C[C@H]3/C=C\CCCCC[C@H](NC(=O)c3ccon3)C(=O)N2C1 [Example 5, N-((2R,6S,13aS,14aR,16aS,Z)-2-(3-(1,1-difluoroethyl)quinoxalin-2-yloxy)-14a-(1-methylcyclopropylsulfonylcarbamoyl)-5,16-dioxo-1,2,3,5,6,7,8,9,10,11,13a,14,14a,15,16,16a-hexadecahydrocyclopropa[e]pyrrolo[1,2-a][1,4]diazacyclopentadecin-6-yl)isoxazole-3-carboxamide] | < 1 | < 3 | < 25
Cc1onc(C(=O)N[C@H]2CCCCC/C=C\[C@@H]3C[C@@]3(C(=O)NS(=O)(=O)C3CC3)NC(=O)[C@@H]3C[C@@H](Oc4nc5ccccc5nc4C(C)(F)F)CN3C2=O)c1C [Example 6, N-((2R,6S,13aS,14aR,16aS,Z)-14a-(cyclopropylsulfonylcarbamoyl)-2-(3-(1,1-difluoroethyl)quinoxalin-2-yloxy)-5,16-dioxo-1,2,3,5,6,7,8,9,10,11,13a,14,14a,15,16,16a-hexadecahydrocyclopropa[e]pyrrolo[1,2-a][1,4]diazacyclopentadecin-6-yl)-4,5-dimethylisoxazole-3-carboxamide] | 1 to 10 | < 3 | 50 to 250
Cc1onc(C(=O)N[C@H]2CCCCC/C=C\[C@@H]3C[C@@]3(C(=O)NS(=O)(=O)C3(C)CC3)NC(=O)[C@@H]3C[C@@H](Oc4nc5ccccc5nc4C(C)(F)F)CN3C2=O)c1C [Example 7, N-((2R,6S,13aS,14aR,16aS,Z)-2-(3-(1,1-difluoroethyl)quinoxalin-2-yloxy)-14a-(1-methylcyclopropylsulfonylcarbamoyl)-5,16-dioxo-1,2,3,5,6,7,8,9,10,11,13a,14,14a,15,16,16a-hexadecahydrocyclopropa[e]pyrrolo[1,2-a][1,4]diazacyclopentadecin-6-yl)-4,5-dimethylisoxazole-3-carboxamide] | 1 to 10 | < 3 | 25 to 50
Cc1cnc(C(=O)N[C@H]2CCCCC/C=C\[C@@H]3C[C@@]3(C(=O)NS(=O)(=O)C3CC3)NC(=O)[C@@H]3C[C@@H](Oc4nc5ccccc5nc4C(F)(F)F)CN3C2=O)cn1 [Example 11, (2R,6S,13aS,14aR,16aS,Z)—N-(cyclopropylsulfonyl)-2-(3-(trifluoromethyl)quinoxalin-2-yloxy)-6-(5-methylpyrazine-2-carboxamido)-5,16-dioxo-1,2,3,5,6,7,8,9,10,11,13a,14,14a,15,16,16a-hexadecahydrocyclopropa[e]pyrrolo[1,2-a][1,4]diazacyclopentadecine-14a-carboxamide] | 10 to 25 | > 100 | 50 to 250
Cn1ccc(C(=O)N[C@H]2CCCCC/C=C\[C@@H]3C[C@@]3(C(=O)NS(=O)(=O)C3CC3)NC(=O)[C@@H]3C[C@@H](Oc4nc5ccccc5nc4C(F)(F)F)CN3C2=O)n1 [Example 12] | 10 to 25 | 50 to 100 | 250 to 1000
Cc1cc(C(=O)N[C@H]2CCCCC/C=C\[C@@H]3C[C@@]3(C(=O)NS(=O)(=O)C3CC3)NC(=O)[C@@H]3C[C@@H](Oc4nc5ccccc5nc4C(F)(F)F)CN3C2=O)[nH]n1 [Example 13] | 10 to 25 | > 100 | 250 to 1000
Cc1ccsc1C(=O)N[C@H]1CCCCC/C=C\[C@@H]2C[C@@]2(C(=O)NS(=O)(=O)C2CC2)NC(=O)[C@@H]2C[C@@H](Oc3nc4ccccc4nc3C(F)(F)F)CN2C1=O [Example 14] | < 1 | 3 to 20 | 25 to 50
Cc1cc(C(=O)N[C@H]2CCCCC/C=C\[C@@H]3C[C@@]3(C(=O)NS(=O)(=O)C3(C)CC3)NC(=O)[C@@H]3C[C@@H](Oc4nc5ccccc5nc4C(F)(F)F)CN3C2=O)no1 [Example 17, 5-methyl-N-((2R,6S,13aS,14aR,16aS,Z)-14a-(1-methylcyclopropylsulfonylcarbamoyl)-5,16-dioxo-2-(3-(trifluoromethyl)quinoxalin-2-yloxy)-1,2,3,5,6,7,8,9,10,11,13a,14,14a,15,16,16a-hexadecahydrocyclopropa[e]pyrrolo[1,2-a][1,4]diazacyclopentadecin-6-yl)isoxazole-3-carboxamide] | < 1 | 3 to 20 | 25 to 50
CC(C)[C@@H](C(=O)N[C@H]1CCCCC/C=C\[C@@H]2C[C@@]2(C(=O)NS(=O)(=O)C2CC2)NC(=O)[C@@H]2C[C@@H](Oc3nc4ccccc4nc3C(F)(F)F)CN2C1=O)N1CCCNC1=O [Example 19, (2R,6S,13aS,14aR,16aS,Z)—N-(cyclopropylsulfonyl)-6-((S)-3-methyl-2-(2-oxotetrahydropyrimidin-1(2H)-yl)butanamido)-5,16-dioxo-2-(3-(trifluoromethyl)quinoxalin-2-yloxy)-1,2,3,5,6,7,8,9,10,11,13a,14,14a,15,16,16a-hexadecahydrocyclopropa[e]pyrrolo[1,2-a][1,4]diazacyclopentadecine-14a-carboxamide] | > 50 | > 100 | > 1000
